Reference: PMC13010972 (Chemical communications (Cambridge, England), 2026)

What was measured:
[1] = system: genes linked to the PhoPQ TCS; conditions: cited from earlier work
[2] = system: polymyxin-resistant S. enterica strain EG9492; conditions: co-treatment of resistant strain EG9492s; cited from earlier work
[3] = system: S. enterica; test: checkerboard assay with colistin; type: cell-based, Salmonella enterica; conditions: R-1 with colistin; FIC < 0.5 indicates synergy

Nc1nc2ccc(OC(F)(F)F)cc2s1 [R-1, riluzole]
expression of genes linked to the PhoPQ TCS [1]: downregulation | change in the colistin MIC [2]: ~ 8 fold | fractional inhibitory concentration (FIC) value [3]: 0.28
